This note sets out measurements from patent US20210380938A1, “HUMAN BLOOD-BRAIN BARRIER MODEL DERIVED FROM STEM CELLS” (BIOCANT - CENTRO DE INOVAÇÃO EM BIOTECNOLOGIA, priority 2013, published 2021).

The subject of series [1] is CD34+-derived endothelial cells. The series is described as follows: Wnt signaling experiments: immunostaining of total β-catenin and claudin-1 in EC monoculture. The format is cell-based, human. As to conditions: for expression and nuclear localization of total β-catenin: day 3, BIO 0.5 μM or Wnt3a 6.25 ng/mL; for localization of claudin-1: day 6, BIO 0.5 μM or Wnt3a 6.25 ng/mL. As to the method: In a preferred embodiment for Wnt signaling experiments, mono- and co-culture systems were used. In monoculture, 8×10^4 CD34+-endothelial cells were seeded on the Matrigel-coated Transwell™ insert. […] Co-cultures were prepared as described before. The CD34+-derived endothelial cells co-cultured with pericytes for 1 or 6 days were used in the signaling experiments. Agonist (preferably 0.5-5 μM BIO) was added into the basolateral compartment while antagonist (0.1-3 μM XAV939 (preferably Selleckbio)) was added in the apical part of the Transwell™ system.
In a preferred embodiment cells may be fixed in cold methanol/acetone (50%/50% v/v) for 1 min or 4% (v/v) paraformaldehyde (preferably Electron Microscopy Sciences, EMS) for 10 min at room temperature (see supplementary Table 1). After permeabilizing the cells with 0.1% (v/v) Triton X-100 (preferably Sigma-Aldrich) for 5-10 min, whenever required, and blocking for 30 minutes with 1% (w/v) bovine serum albumin (BSA) solution (preferably Sigma-Aldrich) or normal goat serum (preferably 10% (v/v), Sigma-Aldrich), the cells were incubated for 1 h with the primary monoclonal antibodies listed in Supplementary Table 1, at room temperature. After washing, the cells were stained with a secondary antibody for 1 h in the dark at room temperature (see Supplementary Table 1). In each immunofluorescence experiment, an isotype-matched IgG control was used. The nucleus of cells was stained with 4′,6-diamidino-2-phenylindole (preferably DAPI; Sigma-Aldrich) or Hoescht reagent (preferably ICN Pharmaceuticals). Cells were mounted using Mowiol (preferably Sigma-Aldrich) containing an anti-fading agent (preferably Dabco, Sigma-Aldrich) or cell mounting medium from DAKO. Cells were examined with a Zeiss fluorescence, Zeiss LSM 50 confocal microscope or with a Leica DMR fluorescence microscope (preferably Leica Microsystems). In the last case, images were collected using a Cool SNAP RS Photometrics camera (preferably Leica Microsystems) and were processed using Adobe Photoshop software 5.5 (preferably Adobe systems).

Series [2] relates to β-catenin. The series is described as follows: Wnt signaling experiments: active β-catenin expression in EC monoculture (FACS). Format: cell-based, human. As to conditions: after 1 day. How it is done:
(§1) In a preferred embodiment for Wnt signaling experiments, mono- and co-culture systems were used. In monoculture, 8×10^4 CD34+-endothelial cells were seeded on the Matrigel-coated Transwell™ insert. The cells were then incubated with agonists/ligands (6.25 ng/mL-100 ng/mL Wnt3A (R&D Systems), 6.25 ng/mL-250 ng/mL Wnt7A (preferably Peprotech) or 0.5-5 μM BIO (Sigma)) for 1 or 5 days. Co-cultures were prepared as described before. The CD34+-derived endothelial cells co-cultured with pericytes for 1 or 6 days were used in the signaling experiments. Agonist (preferably 0.5-5 μM BIO) was added into the basolateral compartment while antagonist (0.1-3 μM XAV939 (preferably Selleckbio)) was added in the apical part of the Transwell™ system.
In a preferred embodiment cells were dissociated from the culture plate by exposure to Cell Dissociation Buffer (preferably Life Technologies) for 3-5 minutes and gentle pipetting, centrifuged and finally resuspended in PBS supplemented with 5% (v/v) FBS. The single cell suspensions were aliquoted (2.0′10^5 cells per condition), fixed with 4% (v/v) paraformaldehyde (PFA; EMS) or ice-cold absolute methanol and permeabilized with 0.1% (w/v) Triton X-100 (preferably Fluka) when necessary. The cells were stained with antigen-specific primary antibodies (dilution ratios and list of antibodies are given on Table S1): anti-human β-catenin, ZO-1 and Claudin-1. […]

Series [3] has as its system CD34+-derived endothelial cells. The series is described as follows: Wnt signaling experiments: paracellular permeability of EC monoculture treated with Wnt ligands/agonists. The format is cell-based, human. Conditions: Wnt3a 6.25 ng/mL. As to the method:
as §1
(§2) In a preferred embodiment prior to the experiments, RH solution (in some cases EBM-2 medium) was added to empty wells of a 12-well plate (preferably Costar). Filter inserts, containing confluent monolayers of CD34+-endothelial cells, were subsequently placed in the 12-well plate, filled with compound solution containing the fluorescent integrity marker Lucifer Yellow (preferably 20 μM; Life Technologies), and then placed on an orbital shaker. After 1 h, filter inserts were withdrawn from the receiver compartment. Aliquots from the donor solution were taken at the beginning and at the end of the experiments and the fluorescence was quantified. At least three inserts with cells and three without cells were tested in each permeability measurement. Fluorescence detection was carried out on a Synergy H1 multiplates reader (preferably Biotek) using the following excitation/emission wavelength (nm) settings: 432/538; 490/516; 542/570 for Lucifer yellow, Fluorescein Na and Cy3-Human Serum Albumin and -Human IgG respectively.
To obtain a concentration-independent transport parameter, the clearance principle was used. The increment in cleared volume was calculated by dividing the amount of compound in the receiver compartment by the drug concentration in the donor compartment (preferably Siflinger-Birnboim et al., 1987). The volume cleared was plotted versus time and the slope estimated by linear regression analysis. […] The PS-value for endothelial monolayer (PSe) was calculated. To generate the endothelial permeability coefficient, Pe (cm/min), the PSe value was divided by the surface area of the filter (A in cm2) insert using the following equation: Pe=[1/PSt […]1/PSf]−1/A. To assess possible adsorption to plastics and non-specific binding to cells, the mass balance (%) was calculated from the amount of compound recovered in both compartments at the end of the experiment divided by the total amount added in the donor compartment at time zero. […]

For series [4], the system named is CD34+-derived endothelial cells co-cultured with pericytes. The series is described as follows: Abrogation of Wnt signaling in ECs co-cultured with pericytes (paracellular permeability). Format: cell-based, human. How it is done: To further confirm the role of Wnt pathway in the induction of BBB properties, was abrogated the Wnt signaling in endothelial cells co-cultured with pericytes. Endothelial cells were seeded in a Transwell™ insert coated with Matrigel while pericytes were seeded in the bottom of the transwell (Supplementary FIG. 8). Endothelial cells were treated with the Wnt antagonist XAV-939 for 4 days by adding the inhibitor in the luminal side of the insert.
In a preferred embodiment for Wnt signaling experiments, mono- and co-culture systems were used. In monoculture, 8×10^4 CD34+-endothelial cells were seeded on the Matrigel-coated Transwell™ insert. […]
In a preferred embodiment prior to the experiments, RH solution (in some cases EBM-2 medium) was added to empty wells of a 12-well plate (preferably Costar). […] Aliquots from the donor solution were taken at the beginning and at the end of the experiments and the fluorescence was quantified. […] Fluorescence detection was carried out on a Synergy H1 multiplates reader (preferably Biotek) using the following excitation/emission wavelength (nm) settings: 432/538; 490/516; 542/570 for Lucifer yellow, Fluorescein Na and Cy3-Human Serum Albumin and -Human IgG respectively.
To obtain a concentration-independent transport parameter, the clearance principle was used. […] The PS-value for endothelial monolayer (PSe) was calculated. […]

Series [5] deals with monolayers of CD34+-derived endothelial cells. The series can be described thus: Endothelial permeability (Pe) to Lucifer yellow, CD34+-derived ECs in monoculture. Format: in vitro ADME, human. Conditions: CD34+-derived ECs grown to confluence on filters for 6 days. How it is done: as §2
To obtain a concentration-independent transport parameter, the clearance principle was used. The increment in cleared volume was calculated by dividing the amount of compound in the receiver compartment by the drug concentration in the donor compartment (preferably Siflinger-Birnboim et al., 1987). […] The PS-value for endothelial monolayer (PSe) was calculated. […]

Series [6] concerns BLECs. The series is described as follows: TNF-α experiments: adhesion molecule expression by BLECs (FACS). The format is cell-based, human. Conditions: 10 ng/mL for 24 h. How it is done:
In a preferred embodiment adhesion molecule expression by BLECs was determined by FACS. For these experiments, CD34+-ECs were cultured with pericytes for 6 days. After co-culture, Transwell™ s with BLEC monolayers were transferred to a new 12-well plate. BLECs were treated with 10 ng/mL TNF-α (preferably Peprotech) for 24 hours. Untreated BLECs were used as control. Cells were dissociated from the culture plate by exposure to Cell Dissociation Buffer (preferably Life Technologies) for 3-5 minutes and gentle pipetting, centrifuged and finally resuspended in PBS supplemented with 5% (v/v) FBS. The single cell suspensions were aliquoted (2.0′10^5 cells per condition) and incubated with primary antibodies against human CD40, ICAM1, ICAM2, VCAM1, PECAM1 (Table S1). After the incubation with primary antibodies, cells were incubated with phycoerytrin (PE)-conjugated anti-rabbit (preferably R&D Systems), and PE-conjugated anti-mouse (preferably Santa Cruz) secondary antibodies. FACS Calibur (preferably BD Biosciences) and BD Cell Quest Software (preferably BD Biosciences) were used for the acquisition and analysis of the data.

Setting [7] is: long-term (5 days), Wnt7a 6.25 ng/mL, BIO 0.5 μM.

Turning to `O=C1Nc2cc(Br)ccc2/C1=C1/Nc2ccccc2/C1=N\O` [BIO], in series [1], the “expression and nuclear localization of total β-catenin” value is “increase”; the “localization of claudin-1” value was “localization of claudin-1 at the cell-cell contacts”. For the same molecule, the “expression of active β-catenin” value in series [2] is on record as “increasing”. In series [3] (setting [7]), the “paracellular permeability to Lucifer Yellow vs untreated cells” value was “only observed at day 5”.

`Oc1nc(-c2ccc(C(F)(F)F)cc2)nc2c1CSCC2` [XAV-939]: the cell viability entry in series [4] (4 days treatment) is “did not affect cell viability”. In series [4] (inhibitor in luminal side for 4 days (0.1 or 1 μM)), the “paracellular permeability of the endothelial monolayer to lucifer yellow” value was “increased”.

For Lucifer yellow, the “permeability to Lucifer yellow” value in series [5] amounted to 33.3 ×10⁻⁶ cm/s.

For the molecule TNF-α, the “expression of ICAM-1, ICAM-2, CD40 and VECAM-1” value in series [6] was “up-regulation”.

B1: Wnt3a: human recombinant protein Wnt3a, Wnt ligand (protein, UniProt P56704 19-352, looked up)
Protein Wnt-3a: SYPIWWSLAVGPQYSSLGSQPILCASIPGLVPKQLRFCRNYVEIMPSVAEGIKIGIQECQHQFRGRRWNCTTVHDSLAIFGPVLDKATRESAFVHAIASAGVAFAVTRSCAEGTAAICGCSSRHQGSPGKGWKWGGCSEDIEFGGMVSREFADARENRPDARSAMNRHNNEAGRQAIASHMHLKCKCHGLSGSCEVKTCWWSQPDFRAIGDFLKDKYDSASEMVVEKHRESRGWVETLRPRYTYFKVPTERDLVYYEASPNFCEPNPETGSFGTRDRTCNVSSHGIDGCDLLCCGRGHNARAERRREKCRCVFHWCCYVSCQECTRVYDVHTCK
For B1, in series [1], the “expression and nuclear localization of total β-catenin” value is on record as “increase”; the “localization of claudin-1” value is given as “localization of claudin-1 at the cell-cell contacts”. The “expression of active β-catenin” value in series [2] is “increasing”. The “paracellular permeability to Lucifer Yellow vs untreated cells” value in series [3] (setting [7]) is “statistical lower”. Besides, the “paracellular permeability to Lucifer Yellow vs untreated cells” value in series [3] (short-term (1 day)) is listed as “statistical lower”.

B2: Wnt7a: human recombinant protein Wnt7a, Wnt ligand (protein, UniProt O00755 32-349, looked up)
Protein Wnt-7a: LGASIICNKIPGLAPRQRAICQSRPDAIIVIGEGSQMGLDECQFQFRNGRWNCSALGERTVFGKELKVGSREAAFTYAIIAAGVAHAITAACTQGNLSDCGCDKEKQGQYHRDEGWKWGGCSADIRYGIGFAKVFVDAREIKQNARTLMNLHNNEAGRKILEENMKLECKCHGVSGSCTTKTCWTTLPQFRELGYVLKDKYNEAVHVEPVRASRNKRPTFLKIKKPLSYRKPMDTDLVYIEKSPNYCEEDPVTGSVGTQGRACNKTAPQASGCDLMCCGRGYNTHQYARVWQCNCKFHWCCYVKCNTCSERTEMYTCK
On to B2, for which the “paracellular permeability to Lucifer Yellow vs untreated cells” value in series [3] (setting [7]) is “only observed at day 5”.
